According to ChEMBL document CHEMBL1201862, “PubChem BioAssay data set” (2004):
Each block holds one molecule with its values, some of them ahead of it. The source made the active and inactive calls.

Columns and labels:
[1] = biological target: Luciferin 4-monooxygenase (Photinus pyralis, UniProt P08659); assay: firefly luciferase enzyme inhibitors, dose response, biochemical, luminescence (AID 1891)
[2] = Luminescence Cell-Based Dose Confirmation HTS to Identify Inhibitors of Platelet Dense Granule Release. [Related pubchem assays: 1663 (Primary HTS), 1678 (Summary of Project)]; format: functional
[3] = biological target: T1, Microphthalmia-associated transcription factor (Homo sapiens, UniProt O75030); assay: TRPM1 promoter luciferase signal decrease, dose response, MITF inhibitor project, cell-based, SK-MEL-5, cherry-picked, set 3 (AID 493073); format: functional
T1 sequence (O75030 whole entry): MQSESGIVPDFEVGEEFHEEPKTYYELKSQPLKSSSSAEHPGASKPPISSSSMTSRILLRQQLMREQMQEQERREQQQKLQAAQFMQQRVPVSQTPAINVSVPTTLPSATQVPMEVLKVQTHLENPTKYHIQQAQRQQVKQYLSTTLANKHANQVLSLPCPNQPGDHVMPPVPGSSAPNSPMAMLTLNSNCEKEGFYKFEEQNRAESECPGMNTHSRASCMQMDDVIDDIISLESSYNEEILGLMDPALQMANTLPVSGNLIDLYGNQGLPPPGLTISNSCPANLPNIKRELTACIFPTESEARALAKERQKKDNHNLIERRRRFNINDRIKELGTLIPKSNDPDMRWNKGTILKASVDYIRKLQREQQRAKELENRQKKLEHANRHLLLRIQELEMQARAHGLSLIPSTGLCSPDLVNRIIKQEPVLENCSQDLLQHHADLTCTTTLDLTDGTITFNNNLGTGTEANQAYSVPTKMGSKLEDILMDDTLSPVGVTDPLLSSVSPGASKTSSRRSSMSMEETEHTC

[4] = LGR2 antagonists, dose response, cell-based, HEK293, CRE-luciferase reporter, cherry pick, set 2 (AID 743343); format: functional;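 further: transfected cells were stimulated with diluted bursicon conditioned medium after compound addition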
[5] = MC4R antagonists, dose response, counter-screen for LGR2 antagonist project, cell-based, plate reader, cherry pick (AID 743444); format: functional;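 further: transfected HEK 293 cells stimulated with alpha-MSH peptide; potency of inhibitors of the alpha-MSH evoked signal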
[6] = HEK293 cell cytotoxicity, dose response, cytotoxicity control, plate reader, cherry-picked samples (AID 743446); format: functional, cell-based
[7] = biological target: Mitogen-activated protein kinase 10 (Homo sapiens, UniProt P53779); assay: Dose response biochemical screening assay for inhibitors of c-Jun N-Terminal Kinase 3 (JNK3). [Related pubchem assays: 746 ]
Mitogen-activated protein kinase 10, sequence (P53779 whole entry): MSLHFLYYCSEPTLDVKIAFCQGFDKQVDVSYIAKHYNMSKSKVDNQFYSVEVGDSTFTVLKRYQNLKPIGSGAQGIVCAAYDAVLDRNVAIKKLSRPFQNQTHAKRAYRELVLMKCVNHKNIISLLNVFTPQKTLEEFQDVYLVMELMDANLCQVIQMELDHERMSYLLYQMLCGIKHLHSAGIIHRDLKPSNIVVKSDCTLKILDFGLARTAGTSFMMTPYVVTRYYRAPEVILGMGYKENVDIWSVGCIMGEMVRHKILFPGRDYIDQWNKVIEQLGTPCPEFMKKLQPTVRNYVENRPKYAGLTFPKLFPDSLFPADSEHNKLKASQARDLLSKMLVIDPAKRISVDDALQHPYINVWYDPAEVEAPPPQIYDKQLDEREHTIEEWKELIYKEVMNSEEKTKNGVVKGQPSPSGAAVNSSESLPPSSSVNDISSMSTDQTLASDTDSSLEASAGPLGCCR

Caspase-6 = biological target: T2, Caspase-6 (Homo sapiens, UniProt P55212); assay: human caspase-6 inhibitors, dose response, biochemical, VEID-R110 fluorescence, cherry-pick (AID 720632)
T2 sequence (P55212 whole entry): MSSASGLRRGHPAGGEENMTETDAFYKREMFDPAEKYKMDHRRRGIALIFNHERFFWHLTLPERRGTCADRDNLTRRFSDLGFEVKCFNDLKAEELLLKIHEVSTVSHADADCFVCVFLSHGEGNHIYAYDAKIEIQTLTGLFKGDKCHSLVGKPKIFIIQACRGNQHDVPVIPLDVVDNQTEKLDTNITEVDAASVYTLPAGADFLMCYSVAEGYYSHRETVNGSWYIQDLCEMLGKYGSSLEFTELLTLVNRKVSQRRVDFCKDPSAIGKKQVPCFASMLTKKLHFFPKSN

[8] = biological target: T3, Histone-lysine N-methyltransferase NSD2 (Homo sapiens, UniProt O96028); format: biochemical
T3 sequence (O96028 whole entry): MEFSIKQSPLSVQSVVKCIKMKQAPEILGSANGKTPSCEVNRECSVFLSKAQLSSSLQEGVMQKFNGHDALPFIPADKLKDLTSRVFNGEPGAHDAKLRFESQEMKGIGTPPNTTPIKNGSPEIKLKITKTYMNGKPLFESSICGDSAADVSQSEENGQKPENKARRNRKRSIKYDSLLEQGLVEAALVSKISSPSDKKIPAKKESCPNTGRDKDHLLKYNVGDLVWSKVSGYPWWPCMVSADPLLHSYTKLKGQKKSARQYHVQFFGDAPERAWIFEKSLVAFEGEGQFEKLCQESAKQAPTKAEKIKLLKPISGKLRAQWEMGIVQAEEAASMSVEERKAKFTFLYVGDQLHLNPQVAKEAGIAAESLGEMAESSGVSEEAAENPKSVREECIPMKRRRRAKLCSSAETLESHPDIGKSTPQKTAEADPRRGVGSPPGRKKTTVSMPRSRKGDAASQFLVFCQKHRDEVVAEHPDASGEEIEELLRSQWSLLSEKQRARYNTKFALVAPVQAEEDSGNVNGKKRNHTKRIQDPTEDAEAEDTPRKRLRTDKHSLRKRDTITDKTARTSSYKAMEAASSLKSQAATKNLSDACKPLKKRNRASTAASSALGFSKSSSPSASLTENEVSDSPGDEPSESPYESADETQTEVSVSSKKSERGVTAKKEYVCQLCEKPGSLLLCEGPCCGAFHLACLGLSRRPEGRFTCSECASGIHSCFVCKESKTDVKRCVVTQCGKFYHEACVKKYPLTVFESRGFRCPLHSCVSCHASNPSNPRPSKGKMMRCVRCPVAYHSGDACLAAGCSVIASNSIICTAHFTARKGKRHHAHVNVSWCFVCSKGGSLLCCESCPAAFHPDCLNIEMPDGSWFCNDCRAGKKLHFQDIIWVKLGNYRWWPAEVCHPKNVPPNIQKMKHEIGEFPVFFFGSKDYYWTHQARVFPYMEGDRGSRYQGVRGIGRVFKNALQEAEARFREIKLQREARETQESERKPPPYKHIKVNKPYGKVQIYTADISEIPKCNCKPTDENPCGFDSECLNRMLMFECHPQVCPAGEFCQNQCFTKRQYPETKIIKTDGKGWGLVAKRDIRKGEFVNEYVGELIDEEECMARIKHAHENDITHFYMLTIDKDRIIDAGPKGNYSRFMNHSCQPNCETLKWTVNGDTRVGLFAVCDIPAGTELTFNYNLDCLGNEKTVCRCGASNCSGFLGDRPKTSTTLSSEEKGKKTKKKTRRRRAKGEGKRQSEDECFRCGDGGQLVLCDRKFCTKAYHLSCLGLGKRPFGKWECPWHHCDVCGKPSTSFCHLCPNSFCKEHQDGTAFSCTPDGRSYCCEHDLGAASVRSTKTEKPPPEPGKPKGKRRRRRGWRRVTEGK

[9] = biological target: T4, Tyrosyl-DNA phosphodiesterase 2 (Homo sapiens, UniProt O95551); assay: human TDP2 enzyme inhibitors, dose response, biochemical, epi absorbance, IC50 (AID 743297)
T4 sequence (O95551 whole entry): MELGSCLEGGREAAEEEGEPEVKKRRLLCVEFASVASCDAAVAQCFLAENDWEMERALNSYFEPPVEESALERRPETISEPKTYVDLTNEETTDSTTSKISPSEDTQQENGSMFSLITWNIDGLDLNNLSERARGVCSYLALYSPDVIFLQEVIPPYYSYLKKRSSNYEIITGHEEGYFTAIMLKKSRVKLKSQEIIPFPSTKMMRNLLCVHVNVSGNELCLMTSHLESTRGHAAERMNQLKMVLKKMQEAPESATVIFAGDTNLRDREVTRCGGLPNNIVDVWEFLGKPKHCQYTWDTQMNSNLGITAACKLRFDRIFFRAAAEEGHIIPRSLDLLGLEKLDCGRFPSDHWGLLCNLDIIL

Paired box protein Pax-8 = Paired box protein Pax-8 (Homo sapiens, UniProt Q06710); assay: inhibitors of PAX8-driven TPO luciferase reporter, dose response, RMG-I cells, cherry-pick (AID 687027); format: functional, cell-based;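 further: luciferase reporter driven by Pax8 target thyroperoxidase promoter measured by SteadyGlo luminescence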
Paired box protein Pax-8, sequence (Q06710 whole entry): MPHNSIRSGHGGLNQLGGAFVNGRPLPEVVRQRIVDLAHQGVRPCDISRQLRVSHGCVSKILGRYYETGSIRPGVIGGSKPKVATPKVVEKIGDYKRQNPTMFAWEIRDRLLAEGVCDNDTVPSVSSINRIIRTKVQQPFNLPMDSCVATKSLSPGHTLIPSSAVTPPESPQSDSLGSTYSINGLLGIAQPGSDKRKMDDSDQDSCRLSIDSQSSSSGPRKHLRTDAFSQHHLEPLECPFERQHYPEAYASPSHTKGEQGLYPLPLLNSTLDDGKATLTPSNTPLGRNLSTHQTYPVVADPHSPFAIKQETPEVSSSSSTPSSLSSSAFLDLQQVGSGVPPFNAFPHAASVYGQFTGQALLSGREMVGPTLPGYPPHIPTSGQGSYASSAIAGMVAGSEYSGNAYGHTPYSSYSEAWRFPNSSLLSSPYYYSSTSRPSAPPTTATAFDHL

[10] = NIH:OVCAR-3 ovarian cancer cell cytotoxicity, dose response, PAX8 inhibitor project, plate reader, dry powder samples (AID 743044); format: functional, cell-based
[11] = cytotoxicity in OVCAR8 ovarian cancer cells, dose response, PAX8 project, cell-based, plate reader, dry powder samples (AID 743197); format: functional; settings: OVCAR-8
[12] = P. falciparum 3D7-ScDHODH growth inhibitors, dose response, SYBR Green, dry powder samples (AID 1159570); format: functional, cell-based;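 further: parasite growth measured after 72 hours of compound exposure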
[13] = HepG2 cell cytotoxicity, dose response, cytotoxicity control, plate reader, dry powder samples (AID 1159569); format: functional, cell-based;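 further: inhibitor potency with signal falling toward the positive control level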
[14] = P. falciparum Dd2 growth inhibitors, dose response, SYBR Green, cherry-picked samples (AID 1159567); format: functional, cell-based
[15] = P. falciparum Dd2 growth inhibitors, dose response, SYBR Green, dry powder samples (AID 1159566); format: functional, cell-based;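 further: potency for growth inhibition with lower SYBR green DNA signal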
[16] = HepG2 cell cytotoxicity, dose response, cytotoxicity control, cherry-picked samples (AID 1159577); format: functional, cell-based
[17] = P. falciparum ATP4 D1247Y mutant growth inhibitors, dose response, NITD609-resistant line, SYBR Green, dry powder (AID 1159571); format: functional, cell-based;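 further: parasites synchronized at ring stage by sorbitol before testing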
[18] = half-maximal inhibitory concentration for glucagon-like peptide-1 release, STC-1 cell line, dose-response (AID 1117345); format: functional, cell-based
[19] = Glucagon-like peptide 1 release potency, NCI-H716 cell line, dose-response, half-maximal inhibitory concentration (AID 1117344); format: functional, cell-based
[20] = A549 cell cytotoxicity, dose response, cytotoxicity control, plate reader, cherry-pick, antagonist series (AID 743412); format: functional, cell-based
[21] = HepG2 cell cytotoxicity, dose response, cytotoxicity control, plate reader, cherry-pick, antagonist series (AID 743416); format: functional, cell-based
[22] = P. falciparum Dd2 growth inhibitors, dose response, SYBR Green, dry powder samples, set 9 (AID 1159568); format: functional, cell-based

Luciferin 4-monooxygenase, sequence (P08659 whole entry): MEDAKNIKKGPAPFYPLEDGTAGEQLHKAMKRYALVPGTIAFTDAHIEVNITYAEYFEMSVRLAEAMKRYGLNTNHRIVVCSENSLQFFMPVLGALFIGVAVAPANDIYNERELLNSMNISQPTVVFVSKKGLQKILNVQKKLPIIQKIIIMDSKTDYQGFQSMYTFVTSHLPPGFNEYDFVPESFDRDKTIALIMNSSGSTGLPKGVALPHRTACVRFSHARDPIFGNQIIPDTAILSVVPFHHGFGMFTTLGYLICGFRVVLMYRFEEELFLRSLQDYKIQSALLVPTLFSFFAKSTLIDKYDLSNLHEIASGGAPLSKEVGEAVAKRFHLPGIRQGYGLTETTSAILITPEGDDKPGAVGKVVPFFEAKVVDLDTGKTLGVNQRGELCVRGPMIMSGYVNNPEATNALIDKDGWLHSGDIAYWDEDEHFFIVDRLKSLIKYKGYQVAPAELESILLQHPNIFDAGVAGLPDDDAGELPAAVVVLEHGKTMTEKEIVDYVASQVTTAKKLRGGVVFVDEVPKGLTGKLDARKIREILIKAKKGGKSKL

IC50 [7]: > 31 µM (not active)
SMILES: COc1ccc(CNC(=O)c2cnn3c(C(F)F)cc(C)nc23)cc1OC

IC50 [7]: > 93.1 µM (not active)
SMILES: N#CCCC12CCCCC1=Nc1ccccc12 (configuration not stated)

IC50 [7]: 39.3 µM (not active)
SMILES: Cc1ccccc1Nc1nn2c(=O)c3ccccc3nc2s1

AC50 (Caspase-6): 26.2 µM (active)
AC50 [8]: 18.5 µM (active)
IC50 [9]: > 129 µM (inactive)
SMILES: Cc1cnc(C2OCCO2)c2cccc(N)c12

More lines, now with the values behind:

SMILES: COc1cc(SC)ccc1C(=O)Nc1ncc(C)s1
EC50 [1]: 8.16 µM (active)
EC50 [2]: 11.6 µM (active)
AC50 [3]: 3.65 µM (active)
AC50 [4]: 1 µM (active)
AC50 [5]: 1.01 µM (active)
AC50 [6]: > 52 µM (inactive)

SMILES: C[C@@H]1CN([C@@H](C)CO)C(=O)Cc2cc(NC(=O)Cc3cn(C)c4ccccc34)ccc2O[C@H]1CN(C)Cc1ccc(Oc2ccccc2)cc1
AC50 (Paired box protein Pax-8): 7.45 µM (active)
AC50 [10]: 22.6 µM (active)
AC50 [11]: 43.1 µM (active)
AC50 [12]: 1.6 µM (active)
AC50 [13]: 22.2 µM (active)
AC50 [14]: 1.34 µM (active)
AC50 [15]: 1.05 µM (active)
AC50 [16]: > 39 µM (inactive)
AC50 [17]: 1.65 µM (active)

SMILES: C#CC1(O)CC[C@H]2[C@@H]3CCC4=CCCC[C@@H]4[C@H]3CC[C@@]21C (some centres not stated)
IC50 [18]: > 40 µM (inactive)
IC50 [19]: 27.5 µM (inactive)

SMILES: O=C(C[C@@H]1C[C@H]2c3cc(NC(=O)c4ccc5c(c4)OCO5)ccc3O[C@H]2[C@@H](CO)O1)NCc1ccc(Oc2ccccc2)cc1
AC50 [20]: 35.3 µM (active)
AC50 [21]: 20.5 µM (active)
AC50 [4]: 32.7 µM (active)
AC50 [22]: > 39 µM (inactive)
